According to patent EP1698638A1, “Lipopeptides having pharmaceutical activity” (Technische Universität Berlin, priority 2005, dated 2006):

What was measured:
Format in all cases: cell-based
[1] = tested on: L 929 (murine aneuploid fibrosarcoma) cells; assay: cytotoxicity assay, IC-Tox50 Kit, resazurin (2nd test); details: down to a concentration of 1.0 µg/mL; decrease of resazurin at 595 nm, 24 h
Procedure: 2nd test Cytotoxicity assays were further performed using the IC-Tox50 Kit from CCS (Cell Culture Service, Hamburg) according to the manufacturers recommendations in 96-well microtitre plates. L 929 (murine aneuploid fibrosarcoma) cells were used and the activity was followed by recording the decrease of the blue pigment resazurin at 595 nm. Down to a concentration of 1.0 µg/mL a hundred percent inhibition of cell activity was determined for hassallidin A and hassallidin B. The cytotoxity assays using deposited L 929 cells were prepared as follows: • Each well contained 140 µl RPMI-1640 medium, 100 µl resazurin solution and 10 µl test solution of hassallidin A or hassallidin B at different concentrations. To obtain 10 µl test solution, 1 µl / 2 µl / 3 µl or 4µl of a 50% methanolic stock solution (25 µg/ 100 µl) were mixed with 9 µl / 8 µl / 7 µl or 6 µl 50% MeOH. For unhindered cell activity, 10 µl 50% MeOH solution was used as test solution. Solutions of 1µg Na2SeO3 / 10 µl (50% MeOH) and 2 µg Na2SeO3 /10 µl (50% MeOH) were used as positive control. • The absorption difference (t0h-t24h) of resazurin metabolised by L 929 cells is graphically represented in figure 6.

[2] = tested on: Acremonium strictum RKI 226/03; assay: microdilution assay (NCCLS), inhibitory concentration (IC); details: RPMI-1640 medium
Procedure: (§1) More specifically, a determination of inhibitory concentration (IC) of hassallidin A and hassallidin B for various fungi, Candida species and Candida strains were performed with different media (RPMI-1640 or SAB or AM3) in a microdilution assay by following the guidelines in NCCLS documents M^38-P^25 and M27-A2^26 carried out as follows Each substance was dissolved with 100% dimethyl sulfoxide (Serva, Heidelberg, Germany) to give a stock solution of 3.2 mg/ml followed by nine log2 dilution steps with the solvent. This served as a 100-fold concentrated dilution series ranging from 1.6 mg/ml to 0.003 mg/ml of the test substance. The final concentration of the test substance was 16 µg/ml to 0.031 µg/ml.
(§2) Therefore the 100-fold concentrated dilution series (with 100% DMSO) was diluted to the final concentration by two dilution steps: • (1) Each concentration of the 100-fold concentrated substance was diluted with test medium for 1:50 (for ex.: adding of 13 µl of the test substance to 637 µl test medium). • (2) 100 µl of each 1:50 diluted concentration was filled in a row of wells of a microtitre plate. One well was without the substance but with the 1:50 diluted solvent serving as growth control.
(§3) A further 1:2 dilution of the antifungal was made by the inoculation of each well with 100 µl of the test organism, which was suspended in the test medium. The remaining well of the row was used for sterility control of the medium. The inoculum was strictly prepared according the NCCLS^25 guidelines, resulting in […] for Candida-species and Cryptococcus neoformans. For hyphomycetes CFU's were tenfold higher (see NCCLS). ^26 The growth of the hyphomycetes respectively the inhibition was measured by visual reading with the help of a reading mirror; scoring was done according to NCCLS :^26 score 0 corresponds to a optical clear well or an IC95 or higher, score 1 corresponds to an inhibition of 80 percent (IC80) and the score 2 of the NCCLS definition corresponds to the IC50 values in the tables. The growth of the yeasts was measured spectrophotometrically by a microplate reader (MR 5000, Dynatech laboratories) at 630 nm displaying the optical density (OD). The percent inhibition IC50, IC80 or IC95 (corresponding the scores of 2, 1 and 0) was calculated by the following formula: (100−[(ODof the well−ODof the medium)] × 100)/((ODof the growth control−ODof the medium).) [formula] Table 3. Test series for determining IC values of hassallidin A and B in different media using Candida albicans and Candida krusei. The IC values were measured after 24 h and 48 h at 30 °C.

[3] = tested on: Fusarium solani RKI 144/03; assay: as above; details: RPMI-1640 medium
Procedure: as §1, §2, §3

[4] = tested on: Candida albicans ATCC 90028; assay: as above; details: RPMI-1640 medium
Procedure: as §1, §2, §3

[5] = tested on: Aspergillus fumigatus RKI 914/02; assay: as above; details: RPMI-1640 medium
Procedure: as §1, §2, §3

[6] = tested on: Fusarium solani RKI 233/04; assay: as above; details: RPMI-1640 medium
Procedure: as §1, §2, §3

[7] = tested on: Aspergillus fumigatus RKI 584/00; assay: as above; details: RPMI-1640 medium
Procedure: as §1, §2, §3

Candida spp. I = assay: as above; details: RPMI-1640 medium
Procedure: as §1, §2, §3

Candida spp. II = assay: as above; details: RPMI-1640 medium
Procedure: as §1, §2, §3

Q: hassallidin A was tested. Which “inhibition of cell activity” value [1] did it give?
A: a hundred

Q: And the IC50 ([2]; 30°C/24h)?
A: 4 to 8 µg/mL

Q: What about the IC80 ([2]; 30°C/24h) of the same substance?
A: 16 µg/mL

Q: What about the IC95 ([2]; 30°C/24h) of the same substance?
A: 16 µg/mL

Q: And the IC50 ([2]; 30°C/48h)?
A: >16 µg/mL

Q: What about the IC80 ([2]; 30°C/48h) of the same substance?
A: > 16 µg/mL

Q: And the IC95 ([2]; 30°C/48h)?
A: > 16 µg/mL

Q: What about the IC50 ([3]; 30°C/24h) of the same substance?
A: 16 µg/mL

Q: What about the IC80 ([3]; 30°C/24h) of the same substance?
A: 16 µg/mL

Q: And the IC95 ([3]; 30°C/24h)?
A: >16 µg/mL

Q: And the IC50 ([3]; 30°C/48h)?
A: >16 µg/mL

Q: And the IC80 ([3]; 30°C/48h)?
A: >16 µg/mL

Q: And the IC95 ([3]; 30°C/48h)?
A: >16 µg/mL

Q: What about the IC50 ([4]; 35°C/24h) of the same substance?
A: 8 µg/mL

Q: And the IC80 ([4]; 35°C/24h)?
A: 8 µg/mL

Q: And the IC95 ([4]; 35°C/24h)?
A: 8 µg/mL

Q: And the IC50 ([4]; 35°C/48h)?
A: 8 µg/mL

Q: What about the IC80 ([4]; 35°C/48h) of the same substance?
A: 8 µg/mL

Q: And the IC95 ([4]; 35°C/48h)?
A: 8 µg/mL

Q: What about the IC50 ([5]; 35°C/24h) of the same substance?
A: 2 µg/mL

Q: And the IC80 ([5]; 35°C/24h)?
A: 2 µg/mL

Q: What about the IC95 ([5]; 35°C/24h) of the same substance?
A: 2 µg/mL

Q: And the IC50 ([5]; 35°C/48h)?
A: 2 µg/mL

Q: And the IC80 ([5]; 35°C/48h)?
A: 2 µg/mL

Q: And the IC95 ([5]; 35°C/48h)?
A: 4 µg/mL

Q: What about the IC50 ([6]; 30°C/24h) of the same substance?
A: 16 µg/mL

Q: What about the IC80 ([6]; 30°C/24h) of the same substance?
A: 16 µg/mL

Q: What about the IC95 ([6]; 30°C/24h) of the same substance?
A: >16 µg/mL

Q: And the IC50 ([6]; 30°C/48h)?
A: >16 µg/mL

Q: And the IC80 ([6]; 30°C/48h)?
A: >16 µg/mL

Q: And the IC95 ([6]; 30°C/48h)?
A: >16 µg/mL

Q: And the IC50 ([7]; 35°C/24h)?
A: 2 µg/mL

Q: And the IC80 ([7]; 35°C/24h)?
A: 2 µg/mL

Q: What about the IC95 ([7]; 35°C/24h) of the same substance?
A: 2 µg/mL

Q: What about the IC80 ([7]; 35°C/48h) of the same substance?
A: 4 µg/mL

Q: And the IC95 ([7]; 35°C/48h)?
A: 4 µg/mL

Q: And the IC50 (Candida spp. I; 35°C/24h)?
A: 8 µg/mL

Q: What about the IC80 (Candida spp. I; 35°C/24h) of the same substance?
A: 8 µg/mL

Q: What about the IC95 (Candida spp. I; 35°C/24h) of the same substance?
A: 8 µg/mL

Q: What about the IC50 (Candida spp. I; 35°C/48h) of the same substance?
A: 8 µg/mL

Q: And the IC80 (Candida spp. I; 35°C/48h)?
A: 8 µg/mL

Q: And the IC95 (Candida spp. I; 35°C/48h)?
A: 8 µg/mL

Q: And the IC50 (Candida spp. II; 35°C/24h)?
A: 8 µg/mL

Q: And the IC80 (Candida spp. II; 35°C/24h)?
A: 8 µg/mL

Q: And the IC95 (Candida spp. II; 35°C/24h)?
A: 8 µg/mL

Q: And the IC50 (Candida spp. II; 35°C/48h)?
A: 8 µg/mL

Q: And the IC80 (Candida spp. II; 35°C/48h)?
A: 8 µg/mL

Q: What about the IC95 (Candida spp. II; 35°C/48h) of the same substance?
A: 8 µg/mL

Q: How did the “inhibition of cell activity” value [1] turn out when hassallidin B was run?
A: a hundred
